Measured values from patent publication US8833457B2, “Sulfates and phosphates as allosteric effectors in mannanohydrolase enzyme breakers” (Baker Hughes Incorporated, priority 2011, dated 2014).

System: mannanohydrolase, GBW-22C
Experiment: Viscosity reduction of borate-crosslinked guar gel by mannanohydrolase enzyme breaker with allosteric effector (Chandler HTHP 5500 Viscometer)
Type: biochemical
Conditions: 150° F., 500 psi
Method: A solution was made comprising: 17 ppt of guar polymer, GW-3LDF; 1 gpt of clay stabilizer, Claytreat-3C; 1.5 gpt of buffer, BF-7L; 1 gpt of crosslinking agent, XLW-32; 1 gpt mannanohydrolase, GBW-22C, diluted 1/100 with distilled water; and 1 gpt of a 1% wt. solution of Na2SO4 (all components available from Baker Hughes Inc.). The solution was mixed with an overhead stirrer. 52 mL of crosslinked fluid was loaded on to a Chandler HTHP 5500 Viscometer and run at 500 psi, 150° F., and 100 s^−1 for an hour.
To compare the effects of phosphate and sulfate a solution was made comprising: 17 ppt of guar polymer, GW-3LDF; 1 gpt of clay stabilizer, Claytreat-3C; 1.5 gpt of buffer, BF-7L; 1 gpt of crosslinking agent, XLW-32; 1 gpt mannanohydrolase, GBW-22C, diluted 1/100 with distilled water; and 1 gpt of a 1% wt. solution of K2HPO4 (all components available from Baker Hughes Inc.).

O=S(=O)([O-])[O-].[Na+].[Na+] [Na2SO4]
difference in enzyme activity between high and smaller concentrations of the effector (FIG. 3) (3 g/L versus 1 gpt 20% wt. Na2SO4 or 2 mg/L, 100 s^−1): does not appear to be a difference | effect of the effector on activity of the mannanohydrolase enzyme against the guar polymer (FIG. 3) (17 ppt GW-3LDF guar, XLW-32 crosslinker, 1 gpt GBW-22C diluted 1/100, 1 gpt of 1% wt. Na2SO4, 100 s^−1, one hour): drastically improves the activity of the mannanohydrolase enzyme
